Reference: publication PMC9928118, “Funneling modulatory peptide design with generative models: Discovery and characterization of disruptors of calcineurin protein-protein interactions” (PLOS Computational Biology, 2023)

What was measured:
[1] = system: GST-tagged Cn; assay: PEPperPRINT peptide microarray binding assay with GST-tagged Cn
Procedure, shortened: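 Qualitative binding: peptides printed on a PEPperPRINT microarray were incubated overnight at 4 °C with 1 mg/ml GST-tagged Cn, then detected with Alexa-Fluor 647 anti-GST antibody. Log fluorescence was baseline-corrected, averaged over duplicate spots, Z-normalized and averaged across five repeats.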

[2] = system: GST-tagged Cn; assay: as above; conditions: max over the duplicate spots (Location on chip)
[3] = GST-tagged Cn, mean over the duplicate spots (Location on chip)
[4] = max over the spots listed under Location on chip
[5] = mean over the spots listed under Location on chip
[6] = GST-tagged Cn, max over the spots on the chip (two locations)
[7] = GST-tagged Cn, mean over the spots on the chip (two locations)
[8] = max over the chip locations listed for the peptide (two spots)
[9] = mean over the chip locations listed for the peptide (two spots)
[10] = GST-tagged Cn, max over the spots named in Location on chip
[11] = GST-tagged Cn, mean over the spots named in Location on chip
[12] = GST-tagged Cn, max over the chip spots listed under Location on chip
[13] = GST-tagged Cn, mean over the chip spots listed under Location on chip
[14] = GST-tagged Cn, max over the chip locations
[15] = GST-tagged Cn, mean over the chip locations

ADEATPSIVVHVCELP [SeqRBMlowT_118]
Chip Fluorescence (mean) [1, 3]: 0.5506
Chip Fluorescence (max) [2]: 2.544

ADEAVPLIDIAMAEYP [SeqRBM_3950]
Chip Fluorescence (mean) [1, 3]: 0.7456
Chip Fluorescence (max) [2]: 2.42

ADETQPGIVVHVCELP [SeqRBMlowT_352]
Chip Fluorescence (mean) [1, 3]: 0.6468
Chip Fluorescence (max) [2]: 2.166

TFWTNPQYRLKVTDPD [SeqRBMlowT_5581]
Chip Fluorescence (max) [1, 4]: 3.3
Chip Fluorescence (mean) [1, 5]: 1.547

TFWTNPQYRLNIIDPD [SeqRBMlowT_94]
Chip Fluorescence (max) [1, 6]: 1.251
Chip Fluorescence (mean) [1, 7]: -0.6992

TFWTNPQYRLWIVSVD [SeqRBM_2615]
Chip Fluorescence (max) [1, 6]: 1.0899
Chip Fluorescence (mean) [1, 7]: -0.4347

TFWTNPQYRMVLDEDD [SeqRBM_7411]
Chip Fluorescence (max) [1, 8]: 5.3741
Chip Fluorescence (mean) [1, 9]: 1.404

TFWTNPQYRVHVCDPD [SeqRBMlowT_293]
Chip Fluorescence (max) [1, 10]: 1.378
Chip Fluorescence (mean) [1, 11]: -0.7162

TFWTNPQYRVHVPDED [SeqRBMlowT_2927]
Chip Fluorescence (max) [1, 6]: 1.2431
Chip Fluorescence (mean) [1, 7]: -0.6745

TFWTNPQYRVKLEDPD [SeqRBMlowT_28]
Chip Fluorescence (max) [1, 10]: 1.52
Chip Fluorescence (mean) [1, 11]: 0.4012

TFWTNPQYRVKLEEPD [SeqRBMlowT_2230]
Chip Fluorescence (max) [1, 6]: 1.125
Chip Fluorescence (mean) [1, 7]: -0.4829

TFWTNPQYRVKVTEPD [SeqRBMlowT_7349]
Chip Fluorescence (max) [1, 6]: 1.274
Chip Fluorescence (mean) [1, 7]: 0.2599

TFWTNPQYRVTVTDPD [SeqRBMlowT_615]
Chip Fluorescence (max) [1, 10]: 1.649
Chip Fluorescence (mean) [1, 11]: 0.4883

TFWTNPQYTITLEEPD [SeqRBMlowT_2235]
Chip Fluorescence (max) [1, 10]: 1.679
Chip Fluorescence (mean) [1, 11]: 0.2149

TFWTNPQYTITLEEVD [SeqRBMlowT_678]
Chip Fluorescence (max) [1, 4]: 2.849
Chip Fluorescence (mean) [1, 5]: 0.5944

TFWTNPQYVITLEDPD [SeqRBMlowT_239]
Chip Fluorescence (max) [1, 4]: 3.22
Chip Fluorescence (mean) [1, 5]: 0.7373

TFWTNPQYVITLEEPD [SeqRBMlowT_2279]
Chip Fluorescence (max) [1, 10]: 1.482
Chip Fluorescence (mean) [1, 11]: 0.5155

TFWTNPQYVITVTDPD [SeqRBMlowT_3207]
Chip Fluorescence (max) [1, 12]: 0.3855
Chip Fluorescence (mean) [1, 13]: -0.6772

TFWTNPQYVVSLEEPD [SeqRBMlowT_5673]
Chip Fluorescence (max) [1, 12]: 0.9389
Chip Fluorescence (mean) [1, 13]: 0.02031

TGTLCKSGMLVSTRMS [SeqRBM_1323]
Chip Fluorescence (max) [1, 12]: 0.8817
Chip Fluorescence (mean) [1, 13]: -0.07521

TGWTNPQFKLRLENDP [SeqRBM_4269]
Chip Fluorescence (max) [1, 12]: 0.7861
Chip Fluorescence (mean) [1, 13]: -0.005549

THTKISSFRGDAEPAP [Seqshuffled_9494]
Chip Fluorescence (max) [1, 14]: 0.1716
Chip Fluorescence (mean) [1, 15]: -0.4714

THVEKVRFLIQPAGHP [Seqshuffled_9690]
Chip Fluorescence (max) [1, 12]: 0.887
Chip Fluorescence (mean) [1, 13]: -0.1564

TLWTNPQYHITLPEED [SeqRBM_3002]
Chip Fluorescence (max) [1, 4]: 3.2575
Chip Fluorescence (mean) [1, 5]: 0.9321

TNSHNPQVDLKIPQVR [SeqRBMlowT_6893]
Chip Fluorescence (max) [1, 8]: 5.271
Chip Fluorescence (mean) [1, 9]: 0.9753

TPVSDHNFALDVSGKP [Seqshuffled_9616]
Chip Fluorescence (max) [1, 10]: 1.846
Chip Fluorescence (mean) [1, 11]: 0.06645

TSPDQPCIDVHQSESE [SeqRBM_4309]
Chip Fluorescence (max) [1, 4]: 2.7949
Chip Fluorescence (mean) [1, 5]: 0.9383

TSSSLPTFNFSSSVIT [SeqNUP153_Canis_lupus]
Chip Fluorescence (max) [1, 6]: 0.9878
Chip Fluorescence (mean) [1, 7]: -0.982

TTAMNPQFFVQIPRTA [SeqCAPN11_Daphnia_magna_2]
Chip Fluorescence (max) [1, 8]: 9.6825
Chip Fluorescence (mean) [1, 9]: 0.161

TTLVIPQMRLTSEATF [SeqRBM_1117]
Chip Fluorescence (max) [1, 8]: 5.611
Chip Fluorescence (mean) [1, 9]: 1.324

TTSTNPQIRITDHEDE [Seqshuffled_9411]
Chip Fluorescence (max) [1, 6]: 1.2864
Chip Fluorescence (mean) [1, 7]: -7.047

TTWLVVFMIPELMKLS [Seqshuffled_9855]
Chip Fluorescence (max) [1, 6]: 1.271
Chip Fluorescence (mean) [1, 7]: 0.8684

TYWTNPQFRVTLEDPD [SeqRBMlowT_4395]
Chip Fluorescence (max) [1, 4]: 3.405
Chip Fluorescence (mean) [1, 5]: 0.7303

VACITWAAMLIIFSMV [Seqrandom_9980]
Chip Fluorescence (max) [1, 12]: 0.9057
Chip Fluorescence (mean) [1, 13]: -0.476

VALVIRSTDKDDVGNY [SeqCEACAM5_Bactrocera_latifrons]
Chip Fluorescence (max) [1, 4]: 3.268
Chip Fluorescence (mean) [1, 5]: 1.368

VAQAFNVDGNCTQYWN [Seqrandom_9942]
Chip Fluorescence (max) [1, 8]: 6.979
Chip Fluorescence (mean) [1, 9]: 1.446

VDIATNDLISELCNLC [Seqrandom_9952]
Chip Fluorescence (max) [1, 8]: 4.084
Chip Fluorescence (mean) [1, 9]: 0.2161

VEEAFPQIIISAEELP [SeqTRESK_Tarsius_syrichta]
Chip Fluorescence (max) [1, 10]: 1.401
Chip Fluorescence (mean) [1, 11]: -0.4076

VETIRPGVVTEPMEAG [SeqRBM_4600]
Chip Fluorescence (max) [1, 4]: 3.238
Chip Fluorescence (mean) [1, 5]: 1.278

VEYDKVWKVAQFVNKC [Seqrandom_9995]
Chip Fluorescence (max) [1, 12]: 0.5427
Chip Fluorescence (mean) [1, 13]: -0.6454

VFAQEDYFLFPVILKE [Seqrandom_9943]
Chip Fluorescence (max) [1, 4]: 3.279
Chip Fluorescence (mean) [1, 5]: -0.004599

VFWANPQFEVTLREDD [SeqRBM_5060]
Chip Fluorescence (max) [1, 10]: 1.773
Chip Fluorescence (mean) [1, 11]: 0.03485

VHQCTPEVSVSVCFTC [SeqRBM_8420]
Chip Fluorescence (max) [1, 14]: 0.0911
Chip Fluorescence (mean) [1, 15]: -0.9088

VKLVIIQVRSASVDAN [SeqRBM_6437]
Chip Fluorescence (max) [1, 14]: -0.5934
Chip Fluorescence (mean) [1, 15]: -1.618

VNLPIPAVQLADSGAY [SeqRBM_1417]
Chip Fluorescence (max) [1, 4]: 2.788
Chip Fluorescence (mean) [1, 5]: 0.6718

VPDIGHMALHHDQIQP [Seqrandom_9983]
Chip Fluorescence (max) [1, 12]: 0.5967
Chip Fluorescence (mean) [1, 13]: -0.4753

VQLFIHLPSSDDTGSY [SeqRBM_6875]
Chip Fluorescence (max) [1, 6]: 1.006
Chip Fluorescence (mean) [1, 7]: -4.049

VQLKIPQLRVSSVSKP [SeqLCORL_2_Sus_scrofa]
Chip Fluorescence (max) [1, 12]: 0.981
Chip Fluorescence (mean) [1, 13]: -0.5484

VRFTLPEKQVHSSAPS [SeqRBM_2315]
Chip Fluorescence (max) [1, 12]: 0.7129
Chip Fluorescence (mean) [1, 13]: -0.8346

VSLKIPGSSAIDLTAS [SeqFLNA_Trichinella_nativa]
Chip Fluorescence (max) [1, 14]: -0.0417
Chip Fluorescence (mean) [1, 15]: -0.9527

VSLYEDALGLGQFSLS [SeqRBM_4294]
Chip Fluorescence (max) [1, 4]: 2.638
Chip Fluorescence (mean) [1, 5]: 0.5735

VSTDAPHSTRNDSGGP [SeqRBM_8532]
Chip Fluorescence (max) [1, 6]: 0.9892
Chip Fluorescence (mean) [1, 7]: -0.732

VVMHKMPKTGGWWHCP [Seqrandom_9963]
Chip Fluorescence (max) [1, 4]: 2.722
Chip Fluorescence (mean) [1, 5]: 1.008

VYWSNPQFIVKLEMVD [SeqRBM_6287]
Chip Fluorescence (max) [1, 4]: 2.588
Chip Fluorescence (mean) [1, 5]: 1.027

WAGCDTWVFSIWRWIA [Seqrandom_10000]
Chip Fluorescence (max) [1, 8]: 3.486
Chip Fluorescence (mean) [1, 9]: 0.3128

YFFDRDTGAGKIEQEH [Seqrandom_9991]
Chip Fluorescence (max) [1, 4]: 2.629
Chip Fluorescence (mean) [1, 5]: -0.3443

YPPGTPTKQGQQMAPS [SeqRTS1_Aspergillus_carbonarius]
Chip Fluorescence (max) [1, 14]: -0.3471
Chip Fluorescence (mean) [1, 15]: -1.955

YRDSWVTACQKIQSKI [Seqrandom_9988]
Chip Fluorescence (max) [1, 4]: 3.109
Chip Fluorescence (mean) [1, 5]: 0.4888
